In patent US11279687B2, “Compounds and compositions for the inhibition of NAMPT” (Valo Health, Inc., priority 2010, dated 2022):
Entries after “also recorded” stand apart in the source; their conditions may differ.

Legend:
[1] = test system: A2780 cells; experiment: In-vitro cell proliferation assay (SRB), A2780 cells; assay type: cell-based; conditions: Homo sapiens, A2780, 72 h, A2780 cells, 72 hours, SRB; read-out: A2780 IC50;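 further: viable cell number read as SRB absorbance, background from media-only wells subtracted, IC50 interpolated from percent inhibition at two bracketing compound concentrations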
[2] = test system: A2780 cells; experiment: A2780 xenograft study in mice; assay type: in vivo, C.B-17-Igh-1b-Prkdc^scid mice; conditions: female SCID mice, s.c. A2780 tumors, p.o. BID for 5 or 10 days, dose selected from MTD study
Method: C.B-17-Igh-1b-Prkdc^scid mice (female) were injected s.c. with 5×10^6 A2780 cells (NCI) in the left flank. 10-12 days later when tumors reached 100-200 mm3 in size, mice were randomized into treatment groups of 8 mice per group including vehicle control and reference standard groups. The compounds were formulated in 60:30:10 PEG-400:D5W: Ethanol and administered p.o., at the dose volume of 10 ml/kg BID for a duration of 5 or 10 days. The dose used for efficacy was selected from the MTD (Maximum Tolerated Dose) study. Mice were weighed and tumors measured using vernier calipers every alternate day. Tumor volume was calculated according to the formula (length×width^2)/2. All animal work was approved by the Institutional Animal Care and Use Committee of Biological Resource Centre, Singapore.

[3] = target: NAMPT (Homo sapiens (Human), UniProt P43490); experiment: NAMPT biochemical inhibition assay (NMN quantified by mass spectrometry); conditions: NAMPT biochemical inhibition; read-out: Biochem IC50
Chain of NAMPT (P43490 whole entry): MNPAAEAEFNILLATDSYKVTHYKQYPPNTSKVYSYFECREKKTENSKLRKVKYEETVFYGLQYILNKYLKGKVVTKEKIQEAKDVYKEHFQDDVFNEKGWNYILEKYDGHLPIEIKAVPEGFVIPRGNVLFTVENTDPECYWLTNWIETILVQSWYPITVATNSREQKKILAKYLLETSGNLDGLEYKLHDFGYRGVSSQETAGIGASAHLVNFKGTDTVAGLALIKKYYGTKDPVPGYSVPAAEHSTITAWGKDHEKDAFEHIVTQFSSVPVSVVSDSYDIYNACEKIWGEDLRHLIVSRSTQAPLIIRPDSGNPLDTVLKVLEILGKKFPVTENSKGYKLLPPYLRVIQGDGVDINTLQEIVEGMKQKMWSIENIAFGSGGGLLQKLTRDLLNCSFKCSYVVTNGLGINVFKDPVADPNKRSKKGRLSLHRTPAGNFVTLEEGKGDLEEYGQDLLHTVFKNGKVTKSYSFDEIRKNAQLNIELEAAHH

SMILES	IC50 [1] [nM]	effect on tumor growth in A2780 xenograft [2]	IC50 [3] [nM]
O=C(NCc1cccnc1)Nc1ccc(S(=O)(=O)N2CC3CCC(C2)O3)cc1 [1-(4-{8-oxa-3-azabicyclo[3.2.1]octane-3-sulfonyl}phenyl)-3-(pyridin-3-ylmethyl)urea]	29	tumor regression	–
O=C(NCc1cccnc1)Nc1ccc(S(=O)(=O)N[C@H]2C[C@@H]3CC[C@H]2C3)cc1 [1-(4-{[(1S,2S,4R)-bicyclo[2.2.1]heptan-2-yl]sulfamoyl}phenyl)-3-(pyridin-3-ylmethyl)urea]	46	delayed tumor growth	7
O=C(NCc1cccnc1)Nc1ccc(S(=O)(=O)c2ccccc2OC(F)(F)F)cc1 [1-(pyridin-3-ylmethyl)-3-(4-{[2-(trifluoromethoxy)benzene]sulfonyl}phenyl)urea]	3	tumor regression	1
O=C(NCc1ccc2nccn2c1)Nc1ccc(S(=O)(=O)c2ccccc2)cc1 [1-[4-(benzenesulfonyl)phenyl]-3-{imidazo[1,2-a]pyridin-6-ylmethyl}urea]	33	delayed tumor growth	–
O=C(NCc1cccnc1)Nc1ccc(S(=O)(=O)N2CCC(N3CCOCC3)CC2)cc1 [1-{4-[4-(morpholin-4-yl)piperidine-1-sulfonyl]phenyl}-3-(pyridin-3-ylmethyl)urea]	13	delayed tumor growth	9
C[C@@H]1CN(S(=O)(=O)c2ccc(NC(=O)NCc3ccc4nccn4c3)cc2)C[C@H](C)O1 [1-{4-[(2R,6S)-2,6-dimethylmorpholine-4-sulfonyl]phenyl}-3-{imidazo[1,2-a]pyridin-6-ylmethyl}urea]	25	delayed tumor growth	8
O=C(NCc1ccc2nccn2c1)Nc1ccc(S(=O)(=O)c2ccc(F)cc2)cc1 [1-{4-[(4-fluorobenzene)sulfonyl]phenyl}-3-{imidazo[1,2-a]pyridin-6-ylmethyl}urea]	29	tumor stasis; also recorded: delayed tumor growth	3
O=C(NCc1cccnc1)Nc1ccc(S(=O)(=O)Nc2cccc3ccccc23)cc1 [1-{4-[(naphthalen-1-yl)sulfamoyl]phenyl}-3-(pyridin-3-ylmethyl)urea]	19	delayed tumor growth	1
COc1ccc(C(F)(F)F)cc1NS(=O)(=O)c1ccc(NC(=O)NCc2cccnc2)cc1 [3-(4-{[2-methoxy-5-(trifluoromethyl)phenyl]sulfamoyl}phenyl)-1-(pyridin-3-ylmethyl)urea]	2	delayed tumor growth	0.1
O=C(NCc1cccnc1)Nc1ccc(S(=O)(=O)c2ccccc2)cc1 [3-[4-(benzenesulfonyl)phenyl]-1-(pyridin-3-ylmethyl)urea]	–	tumor stasis	–
Cc1ccc(Cl)c(NS(=O)(=O)c2ccc(NC(=O)NCc3cccnc3)cc2)c1 [3-{4-[(2-chloro-5-methylphenyl)sulfamoyl]phenyl}-1-(pyridin-3-ylmethyl)urea]	9	delayed tumor growth	0.3
C[C@@H]1CN(S(=O)(=O)c2ccc(NC(=O)NCc3cccnc3)cc2)C[C@H](C)O1 [3-{4-[(2R,6S)-2,6-dimethylmorpholine-4-sulfonyl]phenyl}-1-(pyridin-3-ylmethyl)urea]	9	delayed tumor growth	–
COc1cccc(NS(=O)(=O)c2ccc(NC(=O)NCc3cccnc3)cc2)c1C [3-{4-[(3-methoxy-2-methylphenyl)sulfamoyl]phenyl}-1-(pyridin-3-ylmethyl)urea]	57	delayed tumor growth	2
COc1cc(Cl)c(C)cc1NS(=O)(=O)c1ccc(NC(=O)NCc2cccnc2)cc1 [3-{4-[(4-chloro-2-methoxy-5-methylphenyl)sulfamoyl]phenyl}-1-(pyridin-3-ylmethyl)urea]	6	tumor stasis	1
O=C(NCc1cccnc1)Nc1ccc(S(=O)(=O)c2ccc(F)cc2)cc1 [3-{4-[(4-fluorobenzene)sulfonyl]phenyl}-1-(pyridin-3-ylmethyl)urea]	171	delayed tumor growth	4
COc1ccc(Cl)cc1NS(=O)(=O)c1ccc(NC(=O)NCc2cccnc2)cc1 [3-{4-[(5-chloro-2-methoxyphenyl)sulfamoyl]phenyl}-1-(pyridin-3-ylmethyl)urea]	3	delayed tumor growth	0.9
O=C(NCc1ccc2nccn2c1)Nc1ccc(S(=O)(=O)N2CCC(N3CCOCC3)CC2)cc1 [3-{imidazo[1,2-a]pyridin-6-ylmethyl}-1-{4-[4-(morpholin-4-yl)piperidine-1-sulfonyl]phenyl}urea]	5	delayed tumor growth	4
CC(C)(C)OC(=O)Nc1ccc(CNC(=O)Nc2ccc(S(=O)(=O)N3CCCCC3)cc2)cn1 [tert-butylN-{5-[({[4-(piperidine-1-sulfonyl)phenyl]carbamoyl}amino)methyl]pyridin-2-yl}carbamate]	9780	–	3140
